Experimental data taken from patent US10030020B2, “Spirocycle compounds and methods of making and using same” (Abide Therapeutics, Inc., priority 2016, dated 2018).
pIC50: −log10 of the molar value.

Legend:
MAGL [1] = target: T1, MAGL (Mus musculus (Mouse), UniProt O35678); assay: Mouse brain proteomes from inhibitor treated mice (oral gavage, sacrificed 4 h after administration, ABPP analysis); type: in vivo, mouse (C57Bl/6J); conditions: 5 mg/kg oral gavage
Outline: (§1)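 Mice (wild-type C57Bl/6J) receive inhibitor by oral gavage, e.g. in PEG400/Ethanol/PBS (7/2/1). Each animal is killed 4 h later. Brain proteomes are prepared and analyzed by ABPP, giving % inhibition at 5 mg/kg.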

ABHD6 [2] = target: T2, ABHD6 (Mus musculus (Mouse), UniProt Q8R2Y0); assay: Mouse brain proteomes from inhibitor treated mice (oral gavage, sacrificed 4 h after administration, ABPP analysis), ABHD6; type: in vivo, mouse (C57Bl/6J); conditions: 5 mg/kg oral gavage
T2 sequence (Q8R2Y0 whole entry): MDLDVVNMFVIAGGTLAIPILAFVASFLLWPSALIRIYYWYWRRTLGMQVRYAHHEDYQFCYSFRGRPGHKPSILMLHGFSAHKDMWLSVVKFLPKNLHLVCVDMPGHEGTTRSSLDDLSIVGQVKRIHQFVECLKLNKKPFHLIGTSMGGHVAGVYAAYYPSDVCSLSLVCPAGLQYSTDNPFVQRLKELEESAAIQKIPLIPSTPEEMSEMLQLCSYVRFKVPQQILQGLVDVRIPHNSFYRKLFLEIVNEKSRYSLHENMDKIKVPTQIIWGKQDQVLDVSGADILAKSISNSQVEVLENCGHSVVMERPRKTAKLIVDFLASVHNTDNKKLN
Outline: as §1

MAGL [3] = target: T1, MAGL; assay: In vitro competitive activity-based protein profiling (mouse brain membrane fraction or cell lysates), MAGL band; type: biochemical; conditions: mouse proteome; for inhibition at 1 µM: read-out: MAGL % Inh 1 μM (mouse); for pIC50: competitive ABPP
Description: In Vitro Competitive Activity-Based Protein Profiling.
Proteomes (mouse brain membrane fraction or cell lysates) (50 μL, 1.0 mg/mL total protein concentration) were preincubated with varying concentrations of inhibitors at 37° C. After 30 min, FP—Rh (1.0 μL, 50 μM in DMSO) was added and the mixture was incubated for another 30 min at 37° C. Reactions were quenched with SDS loading buffer (50 μL-4×) and run on SDS-PAGE.

FAAH [4] = target: T3, FAAH (Mus musculus (Mouse), UniProt O08914); assay: Mouse brain proteomes from inhibitor treated mice (oral gavage, sacrificed 4 h after administration, ABPP analysis), FAAH; type: in vivo, mouse (C57Bl/6J); conditions: 5 mg/kg oral gavage
T3 sequence (O08914 whole entry): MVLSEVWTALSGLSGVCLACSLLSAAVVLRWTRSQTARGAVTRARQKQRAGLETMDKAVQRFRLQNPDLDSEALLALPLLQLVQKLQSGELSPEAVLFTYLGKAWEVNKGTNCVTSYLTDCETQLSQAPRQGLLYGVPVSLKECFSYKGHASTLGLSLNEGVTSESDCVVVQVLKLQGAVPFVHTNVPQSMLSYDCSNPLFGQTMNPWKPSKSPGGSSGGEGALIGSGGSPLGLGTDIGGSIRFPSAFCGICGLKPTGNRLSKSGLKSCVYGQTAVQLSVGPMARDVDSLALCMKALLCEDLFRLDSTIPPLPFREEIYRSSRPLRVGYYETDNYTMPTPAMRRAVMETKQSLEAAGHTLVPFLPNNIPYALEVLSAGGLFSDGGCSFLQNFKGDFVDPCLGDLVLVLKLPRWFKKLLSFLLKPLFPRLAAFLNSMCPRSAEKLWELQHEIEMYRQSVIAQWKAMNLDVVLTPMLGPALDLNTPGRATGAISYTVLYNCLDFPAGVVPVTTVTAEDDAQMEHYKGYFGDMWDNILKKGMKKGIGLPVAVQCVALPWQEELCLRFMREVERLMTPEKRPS
Outline: as §1

ABHD6 [5] = target: T2, ABHD6; assay: In vitro competitive activity-based protein profiling (mouse brain membrane fraction or cell lysates), ABHD6 band; type: biochemical; conditions: mouse proteome; for inhibition at 1 µM: read-out: ABHD6 % Inh 1 μM (mouse); for pIC50: competitive ABPP
Outline: (§2)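 Competitive ABPP: proteome 1.0 mg/mL protein + inhibitor, 30 min, 37° C; FP-Rh probe (stock 50 μM in DMSO) added, 30 min, 37° C; SDS quench, SDS-PAGE, fluorescent band intensity read.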

FAAH [6] = target: T3, FAAH; assay: In vitro competitive activity-based protein profiling (mouse brain membrane fraction or cell lysates), FAAH band; type: biochemical; conditions: mouse proteome; for inhibition at 1 µM: read-out: FAAH % Inh 1 μM (mouse); for pIC50: competitive ABPP
Outline: as §2

T1 sequence (O35678 whole entry): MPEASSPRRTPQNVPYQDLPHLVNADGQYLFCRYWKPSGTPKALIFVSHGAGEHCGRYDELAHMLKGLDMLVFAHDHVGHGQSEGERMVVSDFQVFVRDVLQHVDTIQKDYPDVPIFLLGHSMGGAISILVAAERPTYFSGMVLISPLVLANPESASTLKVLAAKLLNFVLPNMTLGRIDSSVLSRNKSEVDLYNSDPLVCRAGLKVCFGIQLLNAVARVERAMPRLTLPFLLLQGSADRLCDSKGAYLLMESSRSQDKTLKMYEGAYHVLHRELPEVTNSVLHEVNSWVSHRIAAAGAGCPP

| SMILES | MAGL % Inh 5 mg/kg (mouse) (MAGL [1]) | ABHD6 % Inh 5 mg/kg (mouse) (ABHD6 [2]) | inhibition at 1 µM (MAGL [3]) [%] | pIC50 (MAGL [3]) | FAAH % Inh 5 mg/kg (mouse) (FAAH [4]) | inhibition at 1 µM (ABHD6 [5]) [%] | pIC50 (ABHD6 [5]) | inhibition at 1 µM (FAAH [6]) [%] | pIC50 (FAAH [6]) |
| --- | --- | --- | --- | --- | --- | --- | --- | --- | --- |
| CC(=O)N1CCN(c2cc(C(F)(F)F)ccc2CN2CCCC23CCN(C(=O)OC(C(F)(F)F)C(F)(F)F)CC3)CC1 [Example 88, 1,1,1,3,3,3-Hexafluoropropan-2-yl 1-(2-(4-acetylpiperazin-1-yl)-4-(trifluoromethyl)benzyl)-1,8-diazaspiro[4.5]decane-8-carboxylate] | ## (## is equal to or greater than 25% but less than 75%) | # (# is <25%) | > 75 | > 7.00 | # (# is <25%) | < 25 | < 6.00 | < 25 | < 6.00 |
| CS(=O)(=O)N1CCN(c2cc(C(F)(F)F)ccc2CN2CCCC23CCN(C(=O)OC(C(F)(F)F)C(F)(F)F)CC3)CC1 [Example 89, 1,1,1,3,3,3-Hexafluoropropan-2-yl 1-(2-(4-(methylsulfonyl)piperazin-1-yl)-4-(trifluoromethyl)benzyl)-1,8-diazaspiro[4.5]decane-8-carboxylate] | # (# is <25%) | # (# is <25%) | > 75 | > 7.00 | # (# is <25%) | < 25 | < 6.00 | < 25 | < 6.00 |
| O=C(OC(C(F)(F)F)C(F)(F)F)N1CCC2(CCCN2Cc2ccc(C(F)(F)F)cc2N2CCC(F)(F)CC2)CC1 [Example 90, 1,1,1,3,3,3-Hexafluoropropan-2-yl 1-(2-(4,4-difluoropiperidin-1-yl)-4-(trifluoromethyl)benzyl)-1,8-diazaspiro[4.5]decane-8-carboxylate] | ## (## is equal to or greater than 25% but less than 75%) | # (# is <25%) | > 75 | > 7.00 | # (# is <25%) | < 25 | < 6.00 | < 25 | < 6.00 |
| O=C(OC(C(F)(F)F)C(F)(F)F)N1CCC2(CCCN2Cc2ccc(C(F)(F)F)cc2N2CCC(F)CC2)CC1 [Example 91, 1,1,1,3,3,3-Hexafluoropropan-2-yl 1-(2-(4-fluoropiperidin-1-yl)-4-(trifluoromethyl)benzyl)-1,8-diazaspiro[4.5]decane-8-carboxylate] | ### (### is ≥75%) | # (# is <25%) | > 75 | > 7.00 | # (# is <25%) | < 25 | < 6.00 | < 25 | < 6.00 |
| CC(=O)NC1CCN(c2cc(C(F)(F)F)ccc2CN2CCCC23CCN(C(=O)OC(C(F)(F)F)C(F)(F)F)CC3)CC1 [Example 93, 1,1,1,3,3,3-Hexafluoropropan-2-yl 1-(2-(4-acetamidopiperidin-1-yl)-4-(trifluoromethyl)benzyl)-1,8-diazaspiro[4.5]decane-8-carboxylate] | ### (### is ≥75%) | # (# is <25%) | > 75 | > 7.00 | # (# is <25%) | < 25 | < 6.00 | < 25 | < 6.00 |
| CS(=O)(=O)NC1CCN(c2cc(C(F)(F)F)ccc2CN2CCCC23CCN(C(=O)OC(C(F)(F)F)C(F)(F)F)CC3)CC1 [Example 94, 1,1,1,3,3,3-Hexafluoropropan-2-yl 1-(2-(4-(methylsulfonamido)piperidin-1-yl)-4-(trifluoromethyl)benzyl)-1,8-diazaspiro[4.5]decane-8-carboxylate] | # (# is <25%) | # (# is <25%) | > 75 | > 7.00 | # (# is <25%) | < 25 | < 6.00 | < 25 | < 6.00 |
| O=C(OC(C(F)(F)F)C(F)(F)F)N1CCC2(CCCN2Cc2ccc(C(F)(F)F)cc2N2CCC2)CC1 [Example 96, 1,1,1,3,3,3-Hexafluoropropan-2-yl 1-(2-(azetidin-1-yl)-4-(trifluoromethyl)benzyl)-1,8-diazaspiro[4.5]decane-8-carboxylate] | ### (### is ≥75%) | # (# is <25%) | > 75 | > 7.00 | # (# is <25%) | < 25 | < 6.00 | < 25 | < 6.00 |
| O=C(OC(C(F)(F)F)C(F)(F)F)N1CCC2(CCCN2Cc2ccc(C(F)(F)F)cc2N2CC3COCC3C2)CC1 (stereo not drawn) [Example 97, 1,1,1,3,3,3-Hexafluoropropan-2-yl 1-(2-(tetrahydro-1H-furo[3,4-c]pyrrol-5(3H)-yl)-4-(trifluoromethyl)benzyl)-1,8-diazaspiro[4.5]decane-8-carboxylate] | ### (### is ≥75%) | # (# is <25%) | > 75 | > 7.00 | # (# is <25%) | < 25 | < 6.00 | < 25 | < 6.00 |
| CC(=O)N1CCN(c2cc(Cl)ccc2CN2CCCC23CCN(C(=O)OC(C(F)(F)F)C(F)(F)F)CC3)CC1 [Example 99, 1,1,1,3,3,3-Hexafluoropropan-2-yl 1-(2-(4-acetylpiperazin-1-yl)-4-chlorobenzyl)-1,8-diazaspiro[4.5]decane-8-carboxylate] | ### (### is ≥75%) | # (# is <25%) | > 75 | > 7.00 | # (# is <25%) | < 25 | < 6.00 | < 25 | < 6.00 |
| CS(=O)(=O)N1CCN(c2cc(Cl)ccc2CN2CCCC23CCN(C(=O)OC(C(F)(F)F)C(F)(F)F)CC3)CC1 [Example 100, 1,1,1,3,3,3-Hexafluoropropan-2-yl 1-(4-chloro-2-(4-(methylsulfonyl)piperazin-1-yl)benzyl)-1,8-diazaspiro[4.5]decane-8-carboxylate] | ### (### is ≥75%) | # (# is <25%) | > 75 | > 7.00 | # (# is <25%) | < 25 | < 6.00 | < 25 | < 6.00 |
| O=C(OC(C(F)(F)F)C(F)(F)F)N1CCC2(CCCN2Cc2ccc(Cl)cc2N2CCC(F)(F)CC2)CC1 [Example 101, 1,1,1,3,3,3-Hexafluoropropan-2-yl 1-(4-chloro-2-(4,4-difluoropiperidin-1-yl)benzyl)-1,8-diazaspiro[4.5]decane-8-carboxylate] | ### (### is ≥75%) | # (# is <25%) | > 75 | > 7.00 | # (# is <25%) | < 25 | < 6.00 | < 25 | < 6.00 |
| O=C(OC(C(F)(F)F)C(F)(F)F)N1CCC2(CCCN2Cc2ccc(Cl)cc2N2CCC(F)CC2)CC1 [Example 102, 1,1,1,3,3,3-Hexafluoropropan-2-yl 1-(4-chloro-2-(4-fluoropiperidin-1-yl)benzyl)-1,8-diazaspiro[4.5]decane-8-carboxylate] | ### (### is ≥75%) | # (# is <25%) | > 75 | > 7.00 | # (# is <25%) | < 25 | < 6.00 | < 25 | < 6.00 |
| CC(=O)NC1CCN(c2cc(Cl)ccc2CN2CCCC23CCN(C(=O)OC(C(F)(F)F)C(F)(F)F)CC3)CC1 [Example 104, 1,1,1,3,3,3-Hexafluoropropan-2-yl 1-(2-(4-acetamidopiperidin-1-yl)-4-chlorobenzyl)-1,8-diazaspiro[4.5]decane-8-carboxylate] | ## (## is equal to or greater than 25% but less than 75%) | # (# is <25%) | > 75 | > 7.00 | # (# is <25%) | < 25 | < 6.00 | 25 to 75 | < 6.00 |
| CS(=O)(=O)NC1CCN(c2cc(Cl)ccc2CN2CCCC23CCN(C(=O)OC(C(F)(F)F)C(F)(F)F)CC3)CC1 [Example 105, 1,1,1,3,3,3-Hexafluoropropan-2-yl 1-(4-chloro-2-(4-(methylsulfonamido)piperidin-1-yl)benzyl)-1,8-diazaspiro[4.5]decane-8-carboxylate] | # (# is <25%) | # (# is <25%) | > 75 | > 7.00 | # (# is <25%) | < 25 | < 6.00 | < 25 | < 6.00 |
